Measurements from PMC6681416, “Novel Derivatives of Deoxycholic Acid Bearing Linear Aliphatic Diamine and Aminoalcohol Moieties and their Cyclic Analogs at the C3 Position: Synthesis and Evaluation of Their In Vitro Antitumor Potential” (Molecules, 2019).

Tested on: HuTu-80 cells
Test: Mitochondrial membrane potential (JC-1)
Format: cell-based, human
Settings: 8 µM, control 18.7%
Procedure: Next, in order to identify whether the compound 9 induces apoptotic cell death by triggering mitochondrial dysfunction, we analyzed its effect on mitochondrial membrane potential (Δψm) in HuTu-80 cells by using fluorescent cationic JC-1 dye (Figure 2B).
The mitochondrial-specific cationic dye JC-1 (Molecular Probes, Invitrogen, Carlsbad, CA, USA) accumulating in the mitochondria by potential-dependent manner was used to detect the effect of compound 9 on ∆ψM. Briefly, HuTu-80 cells were seeded in 6-well plates at a density of 5 × 10^5 cells/well for 24 h. Then cells were treated by compound 9 at 8 µM for 6, 18 or 24 h, collected by trypsinization, washed with PBS, and JC-1 (5 µg/mL) was added to the cells. After 30 min of incubation at 37 °C, the cells were centrifuged, washed with PBS and analyzed using NovoCyte Flow Cytometer (ACEA Biosciences Inc.).

COC(=O)CC[C@@H](C)[C@H]1CC[C@H]2[C@@H]3CC[C@@H]4CC(O)(CNCCCO)CC[C@]4(C)[C@H]3CC(=O)[C@]12C (stereo partly drawn) [Compound 9, Methyl 3-hydroxy-3-((3-hydroxypropylamino)methyl)-12-oxo-5β-cholan-24-oate]
cells with collapsed membrane potential (Low MMP) (6 h): 38.2% | cells with collapsed membrane potential (Low MMP) (18 h): 68.6% | cells with collapsed membrane potential (Low MMP) (24 h): 78.8%
